Columns and labels:
Format in all cases: biochemical
Human recombinant MAGL [1] = molecular target: T1, Human recombinant MAGL (Homo sapiens, UniProt Q99685); assay: MAGL enzyme inhibition assay (4-NPA substrate, absorbance 405 nm); conditions: 30 min, rt, pH 7.2
T1 construct: purchased Cayman Chemical (Ann Arbor, MI, USA)
T1 sequence (Q99685 1-303): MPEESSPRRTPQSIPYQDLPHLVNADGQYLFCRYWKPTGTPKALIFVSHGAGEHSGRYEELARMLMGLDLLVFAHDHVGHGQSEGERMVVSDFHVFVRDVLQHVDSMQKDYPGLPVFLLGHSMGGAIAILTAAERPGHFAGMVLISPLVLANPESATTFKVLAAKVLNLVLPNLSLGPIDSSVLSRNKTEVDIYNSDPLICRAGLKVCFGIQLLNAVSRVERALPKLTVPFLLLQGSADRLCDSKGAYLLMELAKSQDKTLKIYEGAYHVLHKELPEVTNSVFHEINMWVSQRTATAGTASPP
Method: Human recombinant MAGL and 4-nitrophenyl acetate substrate (4-NPA) were bought from Cayman Chemical (Ann Arbor, MI, USA). […] The IC50 values were produced in 96-well microtiter plates. The MAGL reaction was carried out at rt at a final volume of 200 µL in 10 mM Tris buffer, pH 7.2, containing 1 mM EDTA and 0.1 mg/mL BSA. […] The reaction was started by adding 40 µL of MAGL (11 ng/well) in such a way that the assay was linear over 30 min. […] Two more reactions were carried out: one reaction containing no compounds and the second one containing neither enzyme nor inhibitor.

Human recombinant MAGL [2] = molecular target: T1, Human recombinant MAGL; assay: MAGL inhibition with or without the thiol-containing agent DTT
Method: (§1) Furthermore, with the aim of establishing whether the mechanism of inhibition was reversible or irreversible, the effects of preincubation on the inhibitory activity of compounds VS1 and VS2 were evaluated. In this assay, the compounds were preincubated with the enzyme for 0, 30 and 60 min before adding the substrate to start the enzymatic reaction. An irreversible inhibitor should show a higher potency after longer incubation times, whereas a reversible inhibitor should display a constant inhibition potency that is independent from the incubation time. […] Taken together, these experimental studies, aimed at better characterizing the mode of action of compounds VS1 and VS2, further supported the reliability of the binding mode predicted for the two ligands.
Human recombinant MAGL and 4-nitrophenyl acetate substrate (4-NPA) were bought from Cayman Chemical (Ann Arbor, MI, USA). The reversible compound 17b reported by Granchi et al. in 2016 was synthesized in our laboratory and used as reference compound [19]. Compound 3l was synthesized in our laboratory according to the procedure reported by Aida et al. and used as reference compound. The IC50 values were produced in 96-well microtiter plates. The MAGL reaction was carried out at rt at a final volume of 200 µL in 10 mM Tris buffer, pH 7.2, containing 1 mM EDTA and 0.1 mg/mL BSA. A total of 150 µL of 4-NPA 133.3 µM was added to 10 µL of DMSO containing the appropriate amount of compound. The reaction was started by adding 40 µL of MAGL (11 ng/well) in such a way that the assay was linear over 30 min. After the reaction had progressed for 30 min, absorbance values were measured by using a VictorX3 instrument (PerkinElmer, Waltham, MA, USA) at 405 nm. Two more reactions were carried out: one reaction containing no compounds and the second one containing neither enzyme nor inhibitor. To remove possible false positive results, a blank analysis was performed for each compound concentration and the final absorbance results were obtained detracting the absorbance produced by the presence of all the components except MAGL in the same conditions.

Human recombinant MAGL [3] = molecular target: T1, Human recombinant MAGL; assay: MAGL inhibition after preincubation of compound with enzyme (reversibility); conditions: preincubated with the enzyme for 0, 30 and 60 min before adding the substrate
Method: as §1
Human recombinant MAGL and 4-nitrophenyl acetate substrate (4-NPA) were bought from Cayman Chemical (Ann Arbor, MI, USA). […] After the reaction had progressed for 30 min, absorbance values were measured by using a VictorX3 instrument (PerkinElmer, Waltham, MA, USA) at 405 nm. […] To remove possible false positive results, a blank analysis was performed for each compound concentration and the final absorbance results were obtained detracting the absorbance produced by the presence of all the components except MAGL in the same conditions.

[4] = assayed in the absence of DTT, read-out: IC50 in the absence of DTT
[5] = assayed in the presence of 10 µM DTT, read-out: IC50 in the presence of DTT

Row | IC50 (Human recombinant MAGL [1]) [µM] | IC50 (Human recombinant MAGL [2]; [4]) [µM] | IC50 (Human recombinant MAGL [2]; [5]) [µM] | Compound | Effect of preincubation time on inhibitory potency (reversible or irreversible mechanism) (Human recombinant MAGL [3])
1 | 0.9 ± 0.08 |  |  | O=C(c1ccc(Cl)cc1)C1CCN(C(=O)c2cccc(O)c2)CC1 [Compound 17b, reference compound] | 
2 | 34.7 ± 2.4 | 35.4 | 34.1 | Cc1cc(=O)[nH]c(-c2ccc(NS(=O)(=O)c3ccc(F)cc3Cl)cc2)n1 [VS1] | did not show any significant increase in inhibitory potency at longer incubation times
3 | 48.9 ± 4.2 | 47.5 | 49.5 | O=C(c1ccco1)N1CCN(C2=CC(=O)N(c3cccc(Cl)c3)C2=O)CC1 [VS2] | did not show any significant increase in inhibitory potency at longer incubation times
4 | 79.4 ± 6.3 |  |  | CC(C)c1ccc(OCC(=O)Nc2ccc(-c3nc4ccccc4c(=O)o3)cc2)cc1 [VS3] | 
5 | 138 ± 11 |  |  | O=C(c1ccco1)N1CCN(C2CC(=O)N(c3cccc(Cl)c3)C2=O)CC1 (stereo not shown) [VS4] | 
6 | > 200 |  |  | O=C1c2ccc(-c3nc4ccccc4c(=O)o3)cc2C(=O)N1Cc1ccc(Cl)cc1 [VS5] | 
7 | > 200 |  |  | O=C(Nc1nnc(C2CC(=O)N(c3ccccc3)C2)s1)c1cccc(Br)c1 (stereo not shown) [VS6] | 
